In US11753404B2, “Aminothiazole compounds as c-Kit inhibitors” (Ariad Pharmaceuticals, Inc., priority 2016, dated 2023):

Assays:
Assay in all cases: c-Kit assay: Ba/F3 KIT mutant cell viability (Cell Titer-Glo, 72 hours)
Format in all cases: cell-based
Conditions in all cases: viability after 72 hours
[1] = target: T1, BAF3 FL KIT EX11DEL/D816H (Homo sapiens, UniProt P10721, D816H, cells depend on it, form not given)
T1 construct: BAF3 FL KIT EX11DEL/D816H
Protocol: (§1) Generation of DBa/F3 KIT Mutant Engineered Cell Lines
(§2) KIT cDNAs were synthesized by GenScript and cloned into the pLVX-IRES-Puro vector (Clontech). Viral particles were produced by transfecting pLVX-IRES-puro vectors containing KIT mutant genes into HEK293 cells (Invitrogen) using the Trans-Lentiviral ORF Packaging Kit (Thermo Scientific). 48 hours post-transfection, virus-containing supernatants were harvested and incubated for another 48-72 hours with parental Ba/F3 cells (DSMZ) in the presence of 10 ng/mL IL-3 (R&D Systems). Transduced Ba/F3 cells were then selected by IL-3 withdrawal and puromycin (0.5-1 μg/mL, Invitrogen).
(§3) Cell lines (e.g., EX11DEL, EX11DEL/D816H, EX11DEL/T670I, and EX11DEL/V654A) were plated into 384 well plates using RPMI 1640 supplemented with 10% FBS at densities that produced linear growth and incubated at 37° C. in 5% (v/v) CO2. Cells were treated with eight concentrations of compound over a 4-fold dilution (10 μM to 0.61 nM) and viability was assessed using Cell Titer-Glo assay (Promega) after 72 hours. Data were plotted as percent viability relative to vehicle-treated cells. Dose-responses curves were generated and used to calculate IC50 values.

[2] = target: T2, BAF3 FL KIT EX11DEL/V654A (Homo sapiens, UniProt P10721, V654A, cells depend on it, form not given)
T2 construct: BAF3 FL KIT EX11DEL/V654A
Protocol: as §1, §2, §3

[3] = target: T3, BAF3 FL KIT EX11DEL (Homo sapiens, UniProt P10721, cells depend on it, form not given)
T3 construct: BAF3 FL KIT EX11DEL
Protocol: as §1, §2, §3

[4] = target: T4, BAF3 FL KIT EX11DEL/T670I (Homo sapiens, UniProt P10721, T670I, cells depend on it, form not given)
T4 construct: BAF3 FL KIT EX11DEL/T670I
Protocol: as §1, §2, §3

T4 sequence (P10721 with tags, fused parts or gaps DEL557-558/T670I, form open): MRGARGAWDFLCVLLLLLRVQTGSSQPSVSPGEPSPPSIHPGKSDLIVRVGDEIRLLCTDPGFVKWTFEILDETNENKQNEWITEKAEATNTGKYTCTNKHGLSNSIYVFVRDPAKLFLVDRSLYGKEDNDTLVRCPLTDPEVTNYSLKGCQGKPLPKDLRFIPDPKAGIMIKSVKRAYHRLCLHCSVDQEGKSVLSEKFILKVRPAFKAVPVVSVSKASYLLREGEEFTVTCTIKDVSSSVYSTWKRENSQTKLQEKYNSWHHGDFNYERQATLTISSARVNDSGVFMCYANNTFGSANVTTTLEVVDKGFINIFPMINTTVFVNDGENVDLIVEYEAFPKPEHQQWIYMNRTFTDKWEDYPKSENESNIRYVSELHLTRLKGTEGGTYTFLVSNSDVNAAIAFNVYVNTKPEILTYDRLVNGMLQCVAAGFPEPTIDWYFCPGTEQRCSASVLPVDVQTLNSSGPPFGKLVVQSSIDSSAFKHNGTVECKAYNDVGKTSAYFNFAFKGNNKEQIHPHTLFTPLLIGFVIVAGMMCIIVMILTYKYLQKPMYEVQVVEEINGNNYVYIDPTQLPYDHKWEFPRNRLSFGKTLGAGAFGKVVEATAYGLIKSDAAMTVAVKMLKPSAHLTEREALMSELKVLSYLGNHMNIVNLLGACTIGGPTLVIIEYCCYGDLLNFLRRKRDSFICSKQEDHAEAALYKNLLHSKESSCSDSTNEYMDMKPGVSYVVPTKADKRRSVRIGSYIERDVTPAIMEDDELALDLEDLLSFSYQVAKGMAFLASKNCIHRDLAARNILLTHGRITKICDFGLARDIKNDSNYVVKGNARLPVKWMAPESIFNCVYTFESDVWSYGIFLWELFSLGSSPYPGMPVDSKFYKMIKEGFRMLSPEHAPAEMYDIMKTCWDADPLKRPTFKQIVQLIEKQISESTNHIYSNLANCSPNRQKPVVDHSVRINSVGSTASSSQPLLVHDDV
T2 sequence (P10721 with tags, fused parts or gaps DEL557-558/V654A, form open): as the sequence (P10721 with tags, fused parts or gaps DEL557-558/T670I, form open) above, with V652A, I668T counted along it
T3 sequence (P10721 with tags, fused parts or gaps DEL557-558): as the sequence (P10721 with tags, fused parts or gaps DEL557-558/T670I, form open) above, with I668T counted along it
T1 sequence (P10721 with tags, fused parts or gaps DEL557-558/D816H, form open): as the sequence (P10721 with tags, fused parts or gaps DEL557-558/T670I, form open) above, with I668T, D814H counted along it

With `Cc1ccc(C(=O)Nc2cc(C(F)(F)F)ccn2)cc1C#Cc1cnc(NC(=O)NCCN2CCC(O)C2)s1` (stereo not shown) [I-18, 3-((2-(3-(2-(3-hydroxypyrrolidin-1-yl)ethyl)ureido)thiazol-5-yl)ethynyl)-4-methyl-N-(4-(trifluoromethyl)pyridin-2-yl)benzamide] the GI50 [1] was 10 to 50 nM, the GI50 [2] was 10 to 50 nM and the GI50 [3] was under 10 nM. For the same compound, the GI50 [4] was 10 to 50 nM.

`Cc1ccc(C(=O)Nc2cc(C(F)(F)F)ccn2)cc1C#Cc1cnc(NC(=O)N(C)CCN2CCCC2)s1` [I-19, 4-methyl-3-((2-(3-methyl-3-(2-(pyrrolidin-1-yl)ethyl)ureido)thiazol-5-yl)ethynyl)-N-(4-(trifluoromethyl)pyridin-2-yl)benzamide] gave a GI50 [1] of 10 to 50 nM, a GI50 [2] of 10 to 50 nM and a GI50 [3] of under 10 nM. The GI50 [4] was 10 to 50 nM.

`Cc1ccc(C(=O)Nc2cc(C(F)(F)F)ccn2)cc1C#Cc1cnc(NC(=O)N(C)CC2CCCN2C)s1` (stereo not shown) [I-20, 4-methyl-3-((2-(3-methyl-3-((1-methylpyrrolidin-2-yl)methyl)ureido)thiazol-5-yl)ethynyl)-N-(4-(trifluoromethyl)pyridin-2-yl)benzamide] gave a GI50 [1] of 10 to 50 nM, a GI50 [2] of 10 to 50 nM and a GI50 [3] of under 10 nM. For the same compound, the GI50 [4] was 10 to 50 nM.

For `Cc1ccc(C(=O)Nc2cc(C(F)(F)F)ccn2)cc1C#Cc1cnc(NC(=O)N(C)CC(C)(C)O)s1` [I-21, 3-((2-(3-(2-hydroxy-2-methylpropyl)-3-methylureido)thiazol-5-yl)ethynyl)-4-methyl-N-(4-(trifluoromethyl)pyridin-2-yl)benzamide], the GI50 [1] was 10 to 50 nM, the GI50 [2] was 10 to 50 nM and the GI50 [3] was under 10 nM. It also gave a GI50 [4] of 10 to 50 nM.

With `Cc1ccc(C(=O)Nc2cc(C(F)(F)F)ccn2)cc1C#Cc1cnc(NC(=O)N(C)C2CCC(O)CC2)s1` (stereo not shown) [I-22, 3-((2-(3-(4-hydroxycyclohexyl)-3-methylureido)thiazol-5-yl)ethynyl)-4-methyl-N-(4-(trifluoromethyl)pyridin-2-yl)benzamide] the GI50 [1] was under 10 nM, the GI50 [2] was under 10 nM and the GI50 [3] was under 10 nM. It also gave a GI50 [4] of under 10 nM.

Compound `Cc1ccc(C(=O)Nc2cc(C(F)(F)F)ccn2)cc1C#Cc1cnc(NC(=O)N2CCN(C)CC2)s1` [I-23, 4-methyl-N-(5-((2-methyl-5-((4-(trifluoromethyl)pyridin-2-yl)carbamoyl)phenyl)ethynyl)thiazol-2-yl)piperazine-1-carboxamide] has a GI50 [1] of 10 to 50 nM, a GI50 [2] of 10 to 50 nM and a GI50 [3] of under 10 nM. For the same compound, the GI50 [4] was under 10 nM.

With `Cc1ccc(C(=O)Nc2cc(C(F)(F)F)ccn2)cc1C#Cc1cnc(NC(=O)N2CC(C)(O)C2)s1` [I-24, 3-hydroxy-3-methyl-N-(5-((2-methyl-5-((4-(trifluoromethyl)pyridin-2-yl)carbamoyl)phenyl)ethynyl)thiazol-2-yl)azetidine-1-carboxamide] the GI50 [1] was under 10 nM, the GI50 [2] was under 10 nM and the GI50 [3] was under 10 nM. For the same compound, the GI50 [4] was under 10 nM.

Work on `Cc1ccc(C(=O)Nc2cc(C(F)(F)F)ccn2)cc1C#Cc1cnc(NC(=O)N2CCC(C)CC2)s1` [I-25, 4-methyl-N-(5-((2-methyl-5-((4-(trifluoromethyl)pyridin-2-yl)carbamoyl)phenyl)ethynyl)thiazol-2-yl)piperidine-1-carboxamide] yielded a GI50 [1] of 10 to 50 nM, a GI50 [2] of 10 to 50 nM and a GI50 [3] of 10 to 50 nM. For the same compound, the GI50 [4] was 10 to 50 nM.

`Cc1ccc(C(=O)Nc2cc(C(F)(F)F)ccn2)cc1C#Cc1cnc(NC(=O)NCc2ccncc2)s1` [I-26, 4-methyl-3-((2-(3-(pyridin-4-ylmethyl)ureido)thiazol-5-yl)ethynyl)-N-(4-(trifluoromethyl)pyridin-2-yl)benzamide] showed a GI50 [1] of 10 to 50 nM, a GI50 [2] of 10 to 50 nM and a GI50 [3] of 10 to 50 nM. The GI50 [4] was 10 to 50 nM.

`Cc1ccc(C(=O)Nc2cc(C(F)(F)F)ccn2)cc1C#Cc1cnc(NC(=O)N2CCN(CCO)CC2)s1` [I-27, 4-(2-hydroxyethyl)-N-(5-((2-methyl-5-((4-(trifluoromethyl)pyridin-2-yl)carbamoyl)phenyl)ethynyl)thiazol-2-yl)piperazine-1-carboxamide] showed a GI50 [1] of 10 to 50 nM, a GI50 [2] of 10 to 50 nM and a GI50 [3] of under 10 nM. It also gave a GI50 [4] of under 10 nM.

`CNCCN(C)C(=O)Nc1ncc(C#Cc2cc(C(=O)Nc3cc(C(F)(F)F)ccn3)ccc2C)s1` [I-28, 4-methyl-3-((2-(3-methyl-3-(2-(methylamino)ethyl)ureido)thiazol-5-yl)ethynyl)-N-(4-(trifluoromethyl)pyridin-2-yl)benzamide] showed a GI50 [1] of 10 to 50 nM, a GI50 [2] of 10 to 50 nM and a GI50 [3] of under 10 nM. The GI50 [4] was 10 to 50 nM.

For `Cc1ccc(C(=O)Nc2cc(C(F)(F)F)ccn2)cc1C#Cc1cnc(NC(=O)N(C)C2CCN(C)CC2)s1` [I-29, 4-methyl-3-((2-(3-methyl-3-(1-methylpiperidin-4-yl)ureido)thiazol-5-yl)ethynyl)-N-(4-(trifluoromethyl)pyridin-2-yl)benzamide], the GI50 [1] was under 10 nM, the GI50 [2] was 10 to 50 nM and the GI50 [3] was under 10 nM. It also gave a GI50 [4] of under 10 nM.

`Cc1ccc(C(=O)Nc2cc(C(F)(F)F)ccn2)cc1C#Cc1cnc(NC(=O)N2CCNCC2)s1` [I-30, N-(5-((2-methyl-5-((4-(trifluoromethyl)pyridin-2-yl)carbamoyl)phenyl)ethynyl)thiazol-2-yl)piperazine-1-carboxamide] was tested, and the GI50 [1] was 10 to 50 nM, the GI50 [2] was 10 to 50 nM and the GI50 [3] was under 10 nM. It also gave a GI50 [4] of 10 to 50 nM.

In the case of `Cc1ccc(C(=O)Nc2cc(C(F)(F)F)ccn2)cc1C#Cc1cnc(NC(=O)NCCCCN)s1` [I-31, 3-((2-(3-(4-aminobutyl)ureido)thiazol-5-yl)ethynyl)-4-methyl-N-(4-(trifluoromethyl)pyridin-2-yl)benzamide], the GI50 [1] is reported as 50 to 100 nM, the GI50 [2] is reported as 50 to 100 nM and the GI50 [3] is reported as 10 to 50 nM. It also gave a GI50 [4] of 10 to 50 nM.

`Cc1ccc(C(=O)Nc2cc(C(F)(F)F)ccn2)cc1C#Cc1cnc(NC(=O)N(C)C2CCCN(C)C2)s1` (stereo not shown) [I-32, 4-methyl-3-((2-(3-methyl-3-(1-methylpiperidin-3-yl)ureido)thiazol-5-yl)ethynyl)-N-(4-(trifluoromethyl)pyridin-2-yl)benzamide] showed a GI50 [1] of 10 to 50 nM, a GI50 [2] of 10 to 50 nM and a GI50 [3] of under 10 nM. For the same compound, the GI50 [4] was 10 to 50 nM.

Work on `Cc1ccc(C(=O)Nc2cc(C(F)(F)F)ccn2)cc1C#Cc1cnc(NC(=O)N(C)C2CCC(N)CC2)s1` (stereo not shown) [I-33, 3-((2-(3-(4-aminocyclohexyl)-3-methylureido)thiazol-5-yl)ethynyl)-4-methyl-N-(4-(trifluoromethyl)pyridin-2-yl)benzamide] yielded a GI50 [1] of 50 to 100 nM, a GI50 [2] of 50 to 100 nM and a GI50 [3] of 10 to 50 nM. For the same compound, the GI50 [4] was 10 to 50 nM.

`Cc1ccc(C(=O)Nc2cc(C(F)(F)F)ccn2)cc1C#Cc1cnc(NC(=O)N2CCOC(CN(C)C)C2)s1` (stereo not shown) [I-34, 2-((dimethylamino)methyl)-N-(5-((2-methyl-5-((4-(trifluoromethyl)pyridin-2-yl)carbamoyl)phenyl)ethynyl)thiazol-2-yl)morpholine-4-carboxamide] showed a GI50 [1] of 10 to 50 nM, a GI50 [2] of 10 to 50 nM and a GI50 [3] of under 10 nM. It also gave a GI50 [4] of 10 to 50 nM.

`Cc1ccc(C(=O)Nc2cc(C(F)(F)F)ccn2)cc1C#Cc1cnc(NC(=O)N2CCOCC2)s1` [I-35, N-(5-((2-methyl-5-((4-(trifluoromethyl)pyridin-2-yl)carbamoyl)phenyl)ethynyl)thiazol-2-yl)morpholine-4-carboxamide] was tested, and the GI50 [1] was under 10 nM, the GI50 [2] was 10 to 50 nM and the GI50 [3] was under 10 nM. The GI50 [4] was under 10 nM.

`Cc1ccc(C(=O)Nc2cc(C(F)(F)F)ccn2)cc1C#Cc1cnc(NC(=O)NCCCN)s1` [I-36, 3-((2-(3-(3-aminopropyl)ureido)thiazol-5-yl)ethynyl)-4-methyl-N-(4-(trifluoromethyl)pyridin-2-yl)benzamide] gave a GI50 [1] of 10 to 50 nM, a GI50 [2] of 10 to 50 nM and a GI50 [3] of under 10 nM. It also gave a GI50 [4] of 10 to 50 nM.

Compound `CC(=O)N1CCN(C(=O)Nc2ncc(C#Cc3cc(C(=O)Nc4cc(C(F)(F)F)ccn4)ccc3C)s2)CC1` [I-37, 4-acetyl-N-(5-((2-methyl-5-((4-(trifluoromethyl)pyridin-2-yl)carbamoyl)phenyl)ethynyl)thiazol-2-yl)piperazine-1-carboxamide] has a GI50 [1] of under 10 nM, a GI50 [2] of under 10 nM and a GI50 [3] of under 10 nM. For the same compound, the GI50 [4] was under 10 nM.

In the case of `Cc1ccc(C(=O)Nc2cc(C(F)(F)F)ccn2)cc1C#Cc1cnc(NC(=O)NCCN)s1` [I-38, 3-((2-(3-(2-aminoethyl)ureido)thiazol-5-yl)ethynyl)-4-methyl-N-(4-(trifluoromethyl)pyridin-2-yl)benzamide], the GI50 [1] is reported as 50 to 100 nM, the GI50 [2] is reported as 50 to 100 nM and the GI50 [3] is reported as under 10 nM. For the same compound, the GI50 [4] was 50 to 100 nM.

Work on `Cc1ccc(C(=O)Nc2cc(C(F)(F)F)ccn2)cc1C#Cc1cnc(NC(=O)N(C)C2CN(C)C2)s1` [I-39, 4-methyl-3-((2-(3-methyl-3-(1-methylazetidin-3-yl)ureido)thiazol-5-yl)ethynyl)-N-(4-(trifluoromethyl)pyridin-2-yl)benzamide] yielded a GI50 [1] of 100 to 10000 nM, a GI50 [2] of 100 to 10000 nM and a GI50 [3] of 10 to 50 nM. It also gave a GI50 [4] of 100 to 10000 nM.
